Test results as given in PubChem BioAssay AID1963969 (Molecular Pharmacology Branch, DTP, NCI, 2024).

Test system: 817829-284-R-J1-PDC multi-cell spheroid viability
Assay: Anticancer human tumor 817829-284-R-J1-PDC patient-derived colon adenocarcinoma cell line growth inhibition [PI3K]
Conditions: for IC50: curve of first compound; for viability, T/C: stronger effect = lower value
Summary of the method: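 Three cell types, namely tumor cells, endothelial cells and mesenchymal stem cells, formed each spheroid. Combinations with four PI3K inhibitors were screened at clinically achievable concentrations decreasing by half-log, and spheroid viability was recorded.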

[1] = second compound 0.00316 µM, first compound 0.0316 µM
[2] = second compound 0.00316 µM, first compound 0.1 µM
[3] = second compound 0.00316 µM, first compound 0.316 µM
[4] = second compound 0.00316 µM, first compound 1 µM
[5] = second compound 0.00316 µM, first compound 3.16 µM
[6] = second compound 0.00316 µM, first compound 10 µM
[7] = second compound 0.01 µM, first compound 0.0316 µM
[8] = second compound 0.01 µM, first compound 0.1 µM
[9] = second compound 0.01 µM, first compound 0.316 µM
[10] = second compound 0.01 µM, first compound 1 µM
[11] = second compound 0.01 µM, first compound 3.16 µM
[12] = second compound 0.01 µM, first compound 10 µM
[13] = second compound 0.0316 µM, first compound 0.0316 µM
[14] = second compound 0.0316 µM, first compound 0.1 µM
[15] = second compound 0.0316 µM, first compound 0.316 µM
[16] = second compound 0.0316 µM, first compound 1 µM
[17] = second compound 0.0316 µM, first compound 3.16 µM
[18] = second compound 0.0316 µM, first compound 10 µM
[19] = second compound 0.1 µM, first compound 0.0316 µM
[20] = second compound 0.1 µM, first compound 0.1 µM
[21] = second compound 0.1 µM, first compound 0.316 µM
[22] = second compound 0.1 µM, first compound 1 µM
[23] = second compound 0.1 µM, first compound 3.16 µM
[24] = second compound 0.1 µM, first compound 10 µM
[25] = second compound 0.316 µM, first compound 0.0316 µM
[26] = second compound 0.316 µM, first compound 0.1 µM
[27] = second compound 0.316 µM, first compound 0.316 µM
[28] = second compound 0.316 µM, first compound 1 µM
[29] = second compound 0.316 µM, first compound 3.16 µM
[30] = second compound 0.316 µM, first compound 10 µM
[31] = second compound 1 µM, first compound 0.0316 µM
[32] = second compound 1 µM, first compound 0.1 µM
[33] = second compound 1 µM, first compound 0.316 µM
[34] = second compound 1 µM, first compound 1 µM
[35] = second compound 1 µM, first compound 3.16 µM
[36] = second compound 1 µM, first compound 10 µM
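Further: spheroids exposed to agents for seven days before readout.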
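Wherever viability, T/C is given: percent of vehicle DMSO control viability which is 100%.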

Q: For `CC(C)NCC(C(=O)N1CCN(c2ncnc3c2C(C)CC3O)CC1)c1ccc(Cl)cc1` (stereo unspecified) + COc1c(OCCCN2CCOCC2)ccc2c3n(c(=NC(=O)c4cnc(N)nc4)nc12)CCN3, which IC50 (second compound 0.00316 µM) is on record?
A: Its IC50 is 230 nM.

Q: What about the IC50 (second compound 0.01 µM) of the same molecule?
A: The IC50 was 88.4 nM.

Q: And the IC50 (second compound 0.0316 µM)?
A: Its IC50 is 76.7 nM.

Q: What about the IC50 (second compound 0.1 µM) of the same molecule?
A: Its IC50 is less than 31.6 nM.

Q: And the IC50 (second compound 0.316 µM)?
A: Its IC50 is less than 31.6 nM.

Q: And the IC50 (second compound 1 µM)?
A: The IC50 was less than 31.6 nM.

Q: What about the viability, T/C [1] of the same molecule?
A: Its viability, T/C is 78.3%.

Q: And the viability, T/C [2]?
A: The viability, T/C was 51.8%.

Q: And the viability, T/C [3]?
A: Its viability, T/C is 54.5%.

Q: And the viability, T/C [4]?
A: Its viability, T/C is 30.8%.

Q: And the viability, T/C [5]?
A: The viability, T/C was 23%.

Q: And the viability, T/C [6]?
A: Its viability, T/C is 15.1%.

Q: And the viability, T/C [7]?
A: The viability, T/C was 65%.

Q: And the viability, T/C [8]?
A: Its viability, T/C is 49.1%.

Q: What about the viability, T/C [9] of the same molecule?
A: Its viability, T/C is 24.8%.

Q: And the viability, T/C [10]?
A: Its viability, T/C is 21.6%.

Q: And the viability, T/C [11]?
A: The viability, T/C was 21.2%.

Q: And the viability, T/C [12]?
A: Its viability, T/C is 10.2%.

Q: And the viability, T/C [13]?
A: The viability, T/C was 72.6%.

Q: And the viability, T/C [14]?
A: The viability, T/C was 40.6%.

Q: And the viability, T/C [15]?
A: The viability, T/C was 29.9%.

Q: And the viability, T/C [16]?
A: The viability, T/C was 21.4%.

Q: And the viability, T/C [17]?
A: Its viability, T/C is 22.9%.

Q: And the viability, T/C [18]?
A: The viability, T/C was 9.33%.

Q: And the viability, T/C [19]?
A: The viability, T/C was 40.7%.

Q: And the viability, T/C [20]?
A: The viability, T/C was 23.7%.

Q: And the viability, T/C [21]?
A: The viability, T/C was 26.5%.

Q: What about the viability, T/C [22] of the same molecule?
A: The viability, T/C was 15.4%.

Q: What about the viability, T/C [23] of the same molecule?
A: The viability, T/C was 13.4%.

Q: What about the viability, T/C [24] of the same molecule?
A: The viability, T/C was 8.69%.

Q: What about the viability, T/C [25] of the same molecule?
A: The viability, T/C was 20%.

Q: What about the viability, T/C [26] of the same molecule?
A: Its viability, T/C is 19.8%.

Q: What about the viability, T/C [27] of the same molecule?
A: The viability, T/C was 23.6%.

Q: And the viability, T/C [28]?
A: The viability, T/C was 16.6%.

Q: What about the viability, T/C [29] of the same molecule?
A: The viability, T/C was 8.4%.

Q: And the viability, T/C [30]?
A: The viability, T/C was 7.04%.

Q: What about the viability, T/C [31] of the same molecule?
A: The viability, T/C was 12.4%.

Q: What about the viability, T/C [32] of the same molecule?
A: Its viability, T/C is 12.3%.

Q: And the viability, T/C [33]?
A: Its viability, T/C is 13.2%.

Q: And the viability, T/C [34]?
A: The viability, T/C was 10%.

Q: What about the viability, T/C [35] of the same molecule?
A: The viability, T/C was 6.2%.

Q: What about the viability, T/C [36] of the same molecule?
A: Its viability, T/C is 5%.

Q: What does the source list for `CC1(C)CCC(CN2CCN(c3ccc(C(=O)NS(=O)(=O)c4ccc(NCC5CCOCC5)c([N+](=O)[O-])c4)c(Oc4cnc5[nH]ccc5c4)c3)CC2)=C(c2ccc(Cl)cc2)C1` + COc1c(OCCCN2CCOCC2)ccc2c3n(c(=NC(=O)c4cnc(N)nc4)nc12)CCN3?
A: IC50 (second compound 0.00316 µM): > 10000 nM; IC50 (second compound 0.01 µM): > 10000 nM; IC50 (second compound 0.0316 µM): > 10000 nM; IC50 (second compound 0.1 µM): < 31.6 nM; IC50 (second compound 0.316 µM): < 31.6 nM; IC50 (second compound 1 µM): < 31.6 nM; viability, T/C [1]: 59.2%; viability, T/C [2]: 90.8%; viability, T/C [3]: 91.6%; viability, T/C [4]: 81.9%; viability, T/C [5]: 93.3%; viability, T/C [6]: 113%; viability, T/C [7]: 80.5%; viability, T/C [8]: 74.1%; viability, T/C [9]: 75.3%; viability, T/C [10]: 64.3%; viability, T/C [11]: 66.2%; viability, T/C [12]: 69.2%; viability, T/C [13]: 52.7%; viability, T/C [14]: 63.2%; viability, T/C [15]: 72.7%; viability, T/C [16]: 60.1%; viability, T/C [17]: 63%; viability, T/C [18]: 44.5%; viability, T/C [19]: 31.8%; viability, T/C [20]: 31.6%; viability, T/C [21]: 49.6%; viability, T/C [22]: 33.3%; viability, T/C [23]: 45.3%; viability, T/C [24]: 40.1%; viability, T/C [25]: 18.5%; viability, T/C [26]: 20.7%; viability, T/C [27]: 23.2%; viability, T/C [28]: 22.8%; viability, T/C [29]: 24.7%; viability, T/C [30]: 19.7%; viability, T/C [31]: 12.9%; viability, T/C [32]: 11.1%; viability, T/C [33]: 13.6%; viability, T/C [34]: 14.4%; viability, T/C [35]: 13.4%; viability, T/C [36]: 11.7%

Q: With `C[C@@H](NC(=O)c1ncnc(N)c1Cl)c1ncc(C(=O)Nc2cc(C(F)(F)F)c(Cl)cn2)s1` + COc1c(OCCCN2CCOCC2)ccc2c3n(c(=NC(=O)c4cnc(N)nc4)nc12)CCN3 as the molecule, how does the IC50 (second compound 0.00316 µM) read?
A: The IC50 was 10000 nM.

Q: What about the IC50 (second compound 0.01 µM) of the same molecule?
A: Its IC50 is greater than 10000 nM.

Q: And the IC50 (second compound 0.0316 µM)?
A: Its IC50 is greater than 10000 nM.

Q: What about the IC50 (second compound 0.1 µM) of the same molecule?
A: The IC50 was less than 31.6 nM.

Q: What about the IC50 (second compound 0.316 µM) of the same molecule?
A: The IC50 was less than 31.6 nM.

Q: What about the IC50 (second compound 1 µM) of the same molecule?
A: The IC50 was less than 31.6 nM.

Q: What about the viability, T/C [1] of the same molecule?
A: Its viability, T/C is 126%.

Q: What about the viability, T/C [2] of the same molecule?
A: Its viability, T/C is 153%.

Q: And the viability, T/C [3]?
A: Its viability, T/C is 59.9%.

Q: What about the viability, T/C [4] of the same molecule?
A: The viability, T/C was 62%.

Q: And the viability, T/C [5]?
A: The viability, T/C was 69.7%.

Q: And the viability, T/C [6]?
A: Its viability, T/C is 69.3%.

Q: What about the viability, T/C [7] of the same molecule?
A: Its viability, T/C is 101%.

Q: What about the viability, T/C [8] of the same molecule?
A: Its viability, T/C is 79.9%.

Q: What about the viability, T/C [9] of the same molecule?
A: The viability, T/C was 72%.

Q: What about the viability, T/C [10] of the same molecule?
A: The viability, T/C was 68.5%.

Q: What about the viability, T/C [11] of the same molecule?
A: The viability, T/C was 75.3%.

Q: What about the viability, T/C [12] of the same molecule?
A: The viability, T/C was 87.7%.

Q: And the viability, T/C [13]?
A: Its viability, T/C is 68.5%.

Q: What about the viability, T/C [14] of the same molecule?
A: The viability, T/C was 64.1%.

Q: What about the viability, T/C [15] of the same molecule?
A: The viability, T/C was 43.2%.

Q: And the viability, T/C [16]?
A: The viability, T/C was 57.1%.

Q: What about the viability, T/C [17] of the same molecule?
A: Its viability, T/C is 64%.

Q: And the viability, T/C [18]?
A: Its viability, T/C is 72.3%.

Q: What about the viability, T/C [19] of the same molecule?
A: The viability, T/C was 31%.

Q: What about the viability, T/C [20] of the same molecule?
A: The viability, T/C was 38%.

Q: What about the viability, T/C [21] of the same molecule?
A: The viability, T/C was 29.8%.

Q: What about the viability, T/C [22] of the same molecule?
A: Its viability, T/C is 32.3%.

Q: And the viability, T/C [23]?
A: The viability, T/C was 41.5%.

Q: And the viability, T/C [24]?
A: Its viability, T/C is 62.8%.

Q: And the viability, T/C [25]?
A: Its viability, T/C is 26.3%.

Q: What about the viability, T/C [26] of the same molecule?
A: The viability, T/C was 20%.

Q: And the viability, T/C [27]?
A: Its viability, T/C is 24.6%.

Q: What about the viability, T/C [28] of the same molecule?
A: Its viability, T/C is 23.8%.

Q: And the viability, T/C [29]?
A: The viability, T/C was 21.9%.

Q: And the viability, T/C [30]?
A: Its viability, T/C is 16.5%.

Q: What about the viability, T/C [31] of the same molecule?
A: The viability, T/C was 11.8%.

Q: What about the viability, T/C [32] of the same molecule?
A: The viability, T/C was 10.6%.

Q: And the viability, T/C [33]?
A: The viability, T/C was 10.6%.

Q: And the viability, T/C [34]?
A: The viability, T/C was 9.58%.

Q: And the viability, T/C [35]?
A: The viability, T/C was 10%.

Q: And the viability, T/C [36]?
A: Its viability, T/C is 4.95%.
